Measurements: patent US10981926B2 (Janssen Pharmaceutica NV, priority 2016, dated 2021)

Key:
[1] = molecular target: T1, wild-type Androgen Receptor (AR-wt) (Homo sapiens (Human), UniProt P10275); assay: LNCaP-AR-wt ANT reporter assay (antagonist mode); type: cell-based; settings: for IC50 / LNCaP-AR-wt ANT pIC50: antagonist mode, pIC50 = −Log10(IC50 in Molar); for IC50: read-out: LNCaP-AR-wt ANT pIC50 (converted); for Emax: read-out: LNCaP-AR-wt ANT MAX % Inh
[2] = molecular target: T1, wild-type Androgen Receptor (AR-wt); assay: LNCaP-AR-wt AG reporter assay (agonist mode); type: cell-based; settings: for EC50: read-out: LNCaP-AR-wt AG pEC50 (converted); for Emax: read-out: LNCaP-AR-wt AG MAX % Stim
[3] = molecular target: T2, F876L mutant Androgen Receptor (AR-F876L) (Homo sapiens (Human), UniProt P10275, F877L); assay: LNCaP-AR-F876L ANT reporter assay (antagonist mode); type: cell-based; settings: for IC50 / LNCaP-AR-F876L ANT pIC50: antagonist mode, pIC50 = −Log10(IC50 in Molar); for IC50: read-out: LNCaP-AR-F876L ANT pIC50 (converted); for Emax: read-out: LNCaP-AR-F876L ANT MAX % Inh
T2 sequence (P10275 whole entry F877L): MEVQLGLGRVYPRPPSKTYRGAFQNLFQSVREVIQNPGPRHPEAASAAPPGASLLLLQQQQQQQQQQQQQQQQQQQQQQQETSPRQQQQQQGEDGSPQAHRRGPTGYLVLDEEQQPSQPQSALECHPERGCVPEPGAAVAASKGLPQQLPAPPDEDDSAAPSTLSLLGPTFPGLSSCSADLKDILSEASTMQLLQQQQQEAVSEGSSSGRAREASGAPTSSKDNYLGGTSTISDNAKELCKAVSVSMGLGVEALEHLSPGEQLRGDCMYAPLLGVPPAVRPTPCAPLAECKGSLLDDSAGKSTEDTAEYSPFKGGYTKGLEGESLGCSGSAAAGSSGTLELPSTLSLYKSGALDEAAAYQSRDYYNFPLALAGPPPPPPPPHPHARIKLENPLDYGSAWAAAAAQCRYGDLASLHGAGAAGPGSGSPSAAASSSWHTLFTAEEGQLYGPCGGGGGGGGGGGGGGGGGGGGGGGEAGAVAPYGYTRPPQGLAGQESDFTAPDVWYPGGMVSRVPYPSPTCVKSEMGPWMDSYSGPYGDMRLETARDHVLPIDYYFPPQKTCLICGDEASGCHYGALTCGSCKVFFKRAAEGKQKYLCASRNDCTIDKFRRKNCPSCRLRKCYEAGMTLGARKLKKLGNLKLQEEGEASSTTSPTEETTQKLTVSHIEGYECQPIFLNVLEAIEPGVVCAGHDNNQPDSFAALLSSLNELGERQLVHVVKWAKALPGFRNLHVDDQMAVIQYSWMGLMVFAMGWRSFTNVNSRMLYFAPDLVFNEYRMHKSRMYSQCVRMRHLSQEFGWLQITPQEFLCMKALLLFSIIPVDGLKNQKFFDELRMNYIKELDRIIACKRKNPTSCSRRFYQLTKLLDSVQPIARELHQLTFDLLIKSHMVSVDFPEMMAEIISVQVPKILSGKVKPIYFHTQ

[4] = molecular target: T2, F876L mutant Androgen Receptor (AR-F876L); assay: LNCaP-AR-F876L AG reporter assay (agonist mode); type: cell-based; settings: for EC50: read-out: LNCaP-AR-F876L AG pEC50 (converted); for Emax: read-out: LNCaP-AR-F876L AG MAX % Stim
[5] = tested on: rGABA-gated Cl− channel; assay: GABA-Gated Cl Channel Antagonist Radioligand Binding Assay; parameters: species or system rat; settings: 10 μM single point, [35S]-TBPS, cerebral cortex membrane homogenates
Outline: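 Rat cerebral cortex membranes (120 μg protein) incubated 120 min at 22° C with 3 nM […] in 50 mM Na2HPO4/KH2PO4 pH 7.4, 500 mM NaCl; nonspecific binding defined with 20 μM picrotoxinin. Bound label counted after filtration; values are percent inhibition of specific binding at 10 μM compound.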

[6] = maximum % inhibition of R1881 control response over the tested concentration range
[7] = agonist mode, pEC50 = −Log10(EC50 in Molar)
[8] = maximum % stimulation (agonist response) over the tested concentration range

T1 sequence (P10275 whole entry): as the sequence (P10275 whole entry F877L) above, with L877F counted along it

Row | IC50 [1] [nM] | Emax [1, 6] [%] | EC50 [2, 7] [nM] | Emax [2, 8] [%] | IC50 [3] [nM] | Emax [3, 6] [%] | EC50 [4, 7] [nM] | Emax [4, 8] [%] | rGABA-gated Cl− channel % inh @10 μM [5] [%] | Compound | LNCaP-AR-wt ANT pIC50 [1] | LNCaP-AR-F876L ANT pIC50 [3] | LNCaP-AR-wt ANT MAX % Inh [1, 6] [%] | LNCaP-AR-wt AG pEC50 [2, 7] | LNCaP-AR-wt AG MAX % Stim [2, 8] [%] | LNCaP-AR-F876L ANT MAX % Inh [3, 6] [%] | LNCaP-AR-F876L AG pEC50 [4, 7] | LNCaP-AR-F876L AG MAX % Stim [4, 8] [%]
1 | 148 | 102 | > 15100 | 0.2 | 89.1 | 101 | > 15100 | 0.1 | −32.5 | COc1cc(N2C(=O)C3(CCC3)N(c3ccc(OC4CCNCC4)nc3)C2=S)cnc1C#N [Cpd 75, 3-methoxy-5-[5-oxo-8-[6-(4-piperidyloxy)-3-pyridyl]-7-thioxo-6,8-diazaspiro[3.4]octan-6-yl]pyridine-2-carbonitrile] |  |  |  |  |  |  |  | 
2 | 37.2 | 102 | > 15100 | 0.2 | 30.9 | 100 | > 15100 | 0.3 | 53.8 | N#Cc1ncc(N2C(=O)C3(CCC3)N(c3ccc(OC4CCN(CCF)CC4)cc3)C2=S)cc1C(F)(F)F [Cpd 77, 5-[8-[4-[[1-(2-fluoroethyl)-4-piperidyl]oxy]phenyl]-5-oxo-7-thioxo-6,8-diazaspiro[3.4]octan-6-yl]-3-(trifluoromethyl)pyridine-2-carbonitrile] |  |  |  |  |  |  |  | 
3 | 93.3 | 101 | > 15100 | 1.2 | 22.9 | 100 | > 15100 | 0 | 3.8 | Cc1cc(N2C(=O)C3(CCC3)N(c3ccc(OC4CCN(CCF)CC4)nc3)C2=S)cnc1C#N [Cpd 78, 5-[8-[6-[[1-(2-fluoroethyl)-4-piperidyl]oxy]-3-pyridyl]-5-oxo-7-thioxo-6,8-diazaspiro[3.4]octan-6-yl]-3-methyl-pyridine-2-carbonitrile] |  |  |  |  |  |  |  | 
4 | 6.76 | 101 | > 15100 | 1.2 | 8.13 | 98.5 | > 15100 | 1.3 | 11.5 | N#Cc1ncc(N2C(=O)C3(CCC3)N(c3ccc(OC4CCN(CCO)CC4)nc3)C2=S)cc1Cl [Cpd 79, 3-chloro-5-[8-[6-[[1-(2-hydroxyethyl)-4-piperidyl]oxy]-3-pyridyl]-5-oxo-7-thioxo-6,8-diazaspiro[3.4]octan-6-yl]pyridine-2-carbonitrile] |  |  |  |  |  |  |  | 
5 | 25.1 | 102 | > 15100 | 0.6 | 11.2 | 100 | > 15100 | 0.1 | 33.7 | CNC1CCC(Oc2ccc(N3C(=S)N(c4cnc(C#N)c(C(F)(F)F)c4)C(=O)C34CCC4)cc2)CC1 (stereo not drawn) [Cpd 80, 5-[8-[4-[4-(methylamino)cyclohexoxy]phenyl]-5-oxo-7-thioxo-6,8-diazaspiro[3.4]octan-6-yl]-3-(trifluoromethyl)pyridine-2-carbonitrile] |  |  |  |  |  |  |  | 
6 | 28.2 | 102 | > 15100 | 0.4 | 17 | 101 | > 15100 | 0.1 | 28.8 | CN(C)C1CCC(Oc2ccc(N3C(=S)N(c4cnc(C#N)c(C(F)(F)F)c4)C(=O)C34CCC4)cc2)CC1 (stereo not drawn) [Cpd 81, 5-[8-[4-[4-(dimethylamino)cyclohexoxy]phenyl]-5-oxo-7-thioxo-6,8-diazaspiro[3.4]octan-6-yl]-3-(trifluoromethyl)pyridine-2-carbonitrile] |  |  |  |  |  |  |  | 
7 | 155 | 98.7 | > 15100 | 0.4 | 100 | 97.5 | > 15100 | 0.8 | 36.7 | N#Cc1ncc(N2C(=O)C3(CCC3)N(c3ccc(OCCN4CCC5(CCOC5)CC4)cc3)C2=S)cc1C(F)(F)F [Cpd 82, 5-[8-[4-[2-(3-oxa-8-azaspiro[4.5]decan-8-yl)ethoxy]phenyl]-5-oxo-7-thioxo-6,8-diazaspiro[3.4]octan-6-yl]-3-(trifluoromethyl)pyridine-2-carbonitrile] |  |  |  |  |  |  |  | 
8 | 229 | 102 | > 15100 | -0.2 | 129 | 99 | > 15100 | 0.2 | 20.5 | N#Cc1ncc(N2C(=O)C3(CCC3)N(c3ccc(OCCN4CC5(C4)CC(F)(F)C5)cc3)C2=S)cc1C(F)(F)F [Cpd 83, 5-[8-[4-[2-(2,2-difluoro-6-azaspiro[3.3]heptan-6-yl)ethoxy]phenyl]-5-oxo-7-thioxo-6,8-diazaspiro[3.4]octan-6-yl]-3-(trifluoromethyl)pyridine-2-carbonitrile] |  |  |  |  |  |  |  | 
9 | 525 | 101 | > 15100 | 0.2 | 81.3 | 101 | > 15100 | 0.1 | 21.9 | CN1CC(Oc2ccc(N3C(=S)N(c4cnc(C#N)c(C(F)(F)F)c4)C(=O)C34CCC4)cc2)C1 [Cpd 84, 5-[8-[4-(1-methylazetidin-3-yl)oxyphenyl]-5-oxo-7-thioxo-6,8-diazaspiro[3.4]octan-6-yl]-3-(trifluoromethyl)pyridine-2-carbonitrile] |  |  |  |  |  |  |  | 
10 | 123 | 100 | > 15100 | 0 | 75.9 | 99.7 | > 15100 | 0.1 | 15.3 | N#Cc1ncc(N2C(=O)C3(CCC3)N(c3ccc(OC4CC5(CNC5)C4)cc3)C2=S)cc1C(F)(F)F [Cpd 86, 5-[8-[4-(6-azaspiro[3.3]heptan-2-yloxy)phenyl]-5-oxo-7-thioxo-6,8-diazaspiro[3.4]octan-6-yl]-3-(trifluoromethyl)pyridine-2-carbonitrile] |  |  |  |  |  |  |  | 
11 |  | 101 | > 15100 | 0.1 |  | 100 | > 15100 | 0.1 | −14.8 | Cc1cc(N2C(=O)C3(CCC3)N(c3ccc(OC4CCNCC4)nc3)C2=S)cnc1C#N [Cpd 87, 3-methyl-5-[5-oxo-8-[6-(4-piperidyloxy)-3-pyridyl]-7-thioxo-6,8-diazaspiro[3.4]octan-6-yl]pyridine-2-carbonitrile] | 6.92 | 7.09 |  |  |  |  |  | 
12 | 74.1 | 102 | > 15100 | 0.4 | 33.1 | 99.5 | > 15100 | 0.4 | 49.7 | C=CCN1CCC(Oc2ccc(N3C(=S)N(c4cnc(C#N)c(C(F)(F)F)c4)C(=O)C34CCC4)cn2)CC1 [Cpd 88, 5-[8-[6-[(1-allyl-4-piperidyl)oxy]-3-pyridyl]-5-oxo-7-thioxo-6,8-diazaspiro[3.4]octan-6-yl]-3-(trifluoromethyl)pyridine-2-carbonitrile] |  |  |  |  |  |  |  | 
13 | 89.1 | 99.7 | > 15100 | 0.6 | 67.6 | 99.3 | > 15100 | 0.9 | 20.8 | Cc1cc(N2C(=O)C3(CCC3)N(c3ccc(OC4CCN(CC#N)CC4)nc3)C2=S)cnc1C#N [Cpd 90, 5-[8-[6-[[1-(cyanomethyl)-4-piperidyl]oxy]-3-pyridyl]-5-oxo-7-thioxo-6,8-diazaspiro[3.4]octan-6-yl]-3-methyl-pyridine-2-carbonitrile] |  |  |  |  |  |  |  | 

Row | Compound | IC50 [1] [nM] | Emax [1, 6] [%] | EC50 [2, 7] [nM] | Emax [2, 8] [%] | IC50 [3] [nM] | Emax [3, 6] [%] | EC50 [4, 7] [nM] | Emax [4, 8] [%] | rGABA-gated Cl− channel % inh @10 μM [5] [%] | LNCaP-AR-wt ANT pIC50 [1] | LNCaP-AR-F876L ANT pIC50 [3] | LNCaP-AR-wt ANT MAX % Inh [1, 6] [%] | LNCaP-AR-wt AG pEC50 [2, 7] | LNCaP-AR-wt AG MAX % Stim [2, 8] [%] | LNCaP-AR-F876L ANT MAX % Inh [3, 6] [%] | LNCaP-AR-F876L AG pEC50 [4, 7] | LNCaP-AR-F876L AG MAX % Stim [4, 8] [%]
14 | N#Cc1ncc(N2C(=O)C3(CCC3)N(c3ccc(N4CCN(C(=O)N5CCCC5)CC4)cc3)C2=S)cc1C(F)(F)F [Cpd 76, 5-(8-oxo-5-(4-(4-(pyrrolidine-1-carbonyl)piperazin-1-yl)phenyl)-6-thioxo-5,7-diazaspiro[3.4]octan-7-yl)-3-(trifluoromethyl)picolinonitrile] | 93.3 | 102 | > 15100 | 0.6 | 141 | 97.5 | > 15100 | 2.2 | 85.4 |  |  |  |  |  |  |  | 
15 | CC1COC(COc2ccc(N3C(=S)N(c4cnc(C#N)c(C(F)(F)F)c4)C(=O)C34CCC4)cc2)CN1 [Cpd 91, (R,S),(R,S)-5-[8-[4-[(5-methylmorpholin-2-yl)methoxy]phenyl]-5-oxo-7-thioxo-6,8-diazaspiro[3.4]octan-6-yl]-3-(trifluoromethyl)pyridine-2-carbonitrile] |  |  |  |  |  |  |  |  | 36.7 | 7.33 | 7.49 | 98.3 | <4.82 | 0.6 | 98.6 | <4.82 | 0.4
